In BindingDB's records for patent US12398120 (Bayer Aktiengesellschaft, 2025):

Assays:
[1] = target: A disintegrin and metalloproteinase with thrombospondin motifs 7 (Homo sapiens, UniProt Q9UKP4); assay: Assay for ADAMTS-7 Enzymatic Activity and Testing of Inhibitory Compounds
Protocol: An additional carboxyl glutamic acid was added after the QXL520 quencher to increase substrate solubility. […] IC50 values were calculated from percentage of inhibition of ADAMTS-7 activity as a function of test compound concentration.

[2] = target: T1, A disintegrin and metalloproteinase with thrombospondin motifs 4 (Homo sapiens, UniProt O75173)
T1 sequence (O75173 whole entry): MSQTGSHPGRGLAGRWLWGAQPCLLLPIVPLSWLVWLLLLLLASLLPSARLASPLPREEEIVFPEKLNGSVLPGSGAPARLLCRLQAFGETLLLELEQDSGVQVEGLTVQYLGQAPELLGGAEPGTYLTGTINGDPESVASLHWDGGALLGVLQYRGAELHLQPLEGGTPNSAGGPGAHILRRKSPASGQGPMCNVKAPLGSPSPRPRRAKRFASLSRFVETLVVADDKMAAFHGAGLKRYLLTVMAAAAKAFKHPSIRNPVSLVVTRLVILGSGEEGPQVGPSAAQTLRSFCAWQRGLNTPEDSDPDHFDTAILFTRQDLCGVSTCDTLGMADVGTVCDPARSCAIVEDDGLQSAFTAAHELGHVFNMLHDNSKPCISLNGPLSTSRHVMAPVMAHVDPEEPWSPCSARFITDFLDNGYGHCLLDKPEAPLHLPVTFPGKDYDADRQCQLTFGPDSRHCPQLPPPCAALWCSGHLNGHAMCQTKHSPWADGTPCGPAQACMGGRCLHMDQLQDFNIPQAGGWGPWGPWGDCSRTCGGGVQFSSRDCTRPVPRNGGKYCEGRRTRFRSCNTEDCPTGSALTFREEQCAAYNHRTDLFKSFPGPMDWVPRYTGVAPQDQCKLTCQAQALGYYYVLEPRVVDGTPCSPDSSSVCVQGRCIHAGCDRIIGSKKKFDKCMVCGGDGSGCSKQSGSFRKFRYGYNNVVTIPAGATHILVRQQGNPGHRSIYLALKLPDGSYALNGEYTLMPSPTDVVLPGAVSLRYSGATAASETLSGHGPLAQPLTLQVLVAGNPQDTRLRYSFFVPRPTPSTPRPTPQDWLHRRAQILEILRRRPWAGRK

Chain of A disintegrin and metalloproteinase with thrombospondin motifs 7 (Q9UKP4 whole entry): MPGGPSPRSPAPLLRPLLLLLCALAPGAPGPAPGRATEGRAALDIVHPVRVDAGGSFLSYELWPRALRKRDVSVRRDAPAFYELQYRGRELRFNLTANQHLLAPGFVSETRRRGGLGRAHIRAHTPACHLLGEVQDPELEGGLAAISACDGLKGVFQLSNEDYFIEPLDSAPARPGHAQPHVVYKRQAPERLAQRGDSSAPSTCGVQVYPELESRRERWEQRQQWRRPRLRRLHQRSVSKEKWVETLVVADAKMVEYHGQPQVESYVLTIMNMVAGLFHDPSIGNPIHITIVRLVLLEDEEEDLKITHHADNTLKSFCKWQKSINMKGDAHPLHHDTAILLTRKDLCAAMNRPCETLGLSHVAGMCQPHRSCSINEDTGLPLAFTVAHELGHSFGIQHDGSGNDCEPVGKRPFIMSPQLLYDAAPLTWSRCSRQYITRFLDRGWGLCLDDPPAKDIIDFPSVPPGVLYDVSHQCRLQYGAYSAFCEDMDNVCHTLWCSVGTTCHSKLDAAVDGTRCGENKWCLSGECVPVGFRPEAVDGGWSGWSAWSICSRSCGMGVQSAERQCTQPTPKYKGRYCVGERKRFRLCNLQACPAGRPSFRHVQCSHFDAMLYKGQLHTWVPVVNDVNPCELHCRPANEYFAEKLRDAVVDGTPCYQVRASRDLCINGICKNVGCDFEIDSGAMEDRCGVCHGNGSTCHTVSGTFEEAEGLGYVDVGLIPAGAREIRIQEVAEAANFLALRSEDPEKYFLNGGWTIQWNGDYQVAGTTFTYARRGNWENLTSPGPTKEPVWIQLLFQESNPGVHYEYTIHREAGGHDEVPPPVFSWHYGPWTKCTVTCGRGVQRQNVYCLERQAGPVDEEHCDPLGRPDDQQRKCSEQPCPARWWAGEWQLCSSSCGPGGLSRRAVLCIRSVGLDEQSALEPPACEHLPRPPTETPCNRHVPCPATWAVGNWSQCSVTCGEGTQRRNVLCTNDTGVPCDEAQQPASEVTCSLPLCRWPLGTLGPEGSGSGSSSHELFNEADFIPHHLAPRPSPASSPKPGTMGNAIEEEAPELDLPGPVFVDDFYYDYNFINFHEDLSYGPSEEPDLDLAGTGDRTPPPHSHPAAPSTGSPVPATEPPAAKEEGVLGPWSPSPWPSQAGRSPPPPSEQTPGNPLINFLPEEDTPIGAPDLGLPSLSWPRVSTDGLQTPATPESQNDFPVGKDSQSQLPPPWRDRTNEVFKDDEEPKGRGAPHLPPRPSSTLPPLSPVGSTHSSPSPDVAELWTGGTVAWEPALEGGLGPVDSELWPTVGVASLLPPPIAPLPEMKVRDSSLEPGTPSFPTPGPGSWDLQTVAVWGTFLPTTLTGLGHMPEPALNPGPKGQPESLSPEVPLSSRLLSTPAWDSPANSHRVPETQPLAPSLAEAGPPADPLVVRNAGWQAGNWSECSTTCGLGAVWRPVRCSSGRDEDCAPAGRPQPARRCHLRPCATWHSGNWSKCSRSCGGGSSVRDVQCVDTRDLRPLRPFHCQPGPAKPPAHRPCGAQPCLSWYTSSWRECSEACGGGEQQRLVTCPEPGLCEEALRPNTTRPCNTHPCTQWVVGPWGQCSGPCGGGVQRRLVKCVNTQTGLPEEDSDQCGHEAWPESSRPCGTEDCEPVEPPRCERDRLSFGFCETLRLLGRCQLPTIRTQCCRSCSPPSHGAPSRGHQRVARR

IC50 [1] [nM] | IC50 [2] [nM] | Structure (SMILES)
8.97 | 37500 | CC(C)C1(CNC(=O)c2ccc(F)c(F)c2-c2ccc(C(F)(F)F)cc2)NC(=O)NC1=O (single isomer, unassigned) [US12398120, Example 214]
4.2 | 1700 | Cc1ccc(-c2cc(F)ccc2C(=O)NCC2(c3nccn3C)NC(=O)NC2=O)cc1 (single isomer, unassigned) [US12398120, Example 147]
45 | 8100 | Cc1ccc(-c2cc(F)ccc2C(=O)NC[C@@]2(C3CC3)NC(=O)NC2=O)cc1 [US12398120, Example 100]
